In patent US9073813B2, “Process for the preparation of protoescigenin” (INSTYTUT FARMACEUTYCZNY, priority 2011, dated 2015):

Assay: Thermal stability of the crystalline form (X-ray diffraction over temperature loop 25° C.→30 min at 110° C.→25° C.)
Type: physicochemical
Description: Protoescigenin monohydrate is stable under ambient conditions, up to 100° C. X-ray diffraction measurements of monohydrate were done at the following temperature loop: 25° C.→30 min at 110° C.→25° C.
X-ray powder diffraction (XRPD) studies were performed by means of the MiniFlex diffractometer (Rigaku Coporation, Tokyo Japan) using CuKα radiation (λ=1.54056 Å) with following parameters: • Scanning range 2θ: from 3° to 40° • Scanning speed: 0.5°/min • Measurement step: 2θ: 0.02° • Measurement temperature: ambient temperature • Detector: scintillator

For `CC1(C)CC2C3=CCC4[C@@]5(C)CC[C@H](O)[C@](C)(CO)C5CC[C@@]4(C)[C@]3(C)C[C@@H](O)[C@@]2(CO)[C@@H](O)[C@@H]1O` (some centres unmarked) [Protoescigenin monohydrate, protoescigenin monohydrate], the “form change on heating (X-ray diffraction)” value (after heating for 30 min at 110° C., loop 25° C.→110° C.→25° C.) was “changes to a different form, called form V” and the “stable under ambient conditions, up to (temperature)” value (solid state, ambient conditions) was “up to 100 °C”.
